Measured values as given in patent US5686486A, “4-hydroxy-benzopyran-2-ones and 4-hydroxy-cycloalkyl[b]pyran-2-ones useful to treat retroviral infections” (priority 1995, dated 1997).
“And” between values parts separate entries of the source, which are not always exact repeats. Equal entries are not always repeated.

What was measured:
HIV-1 protease [1] = biological target: T1, HIV-1 protease (Human immunodeficiency virus type 1 group M subtype B, UniProt P04585); test: biochemical; conditions: read-out: HIV-1 FITC KI
How it was run: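 Ki from two-fold serial inhibitor dilutions (24–48 concentrations) with 40 nM HIV-1 protease stock and 200 μM substrate stock, 90 min at room temperature; stopped with avidin beads. Reference inhibitor run in parallel; Ki by nonlinear least-squares fit.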

HIV-1 protease [2] = biological target: T1, HIV-1 protease; test: biochemical; conditions: for inhibition at 0.123 µM: read-out: HIV-1 Protease % Inhib, dose 0.123 uM; for inhibition at 0.37 µM: read-out: HIV-1 Protease % Inhib, dose 0.370 uM; for inhibition at 1.1 µM: read-out: HIV-1 Protease % Inhib, dose 1.100 uM; for inhibition at 3.3 µM: read-out: HIV-1 Protease % Inhib, dose 3.300 uM; for inhibition at 10 µM: read-out: HIV-1 Protease % Inhib, dose 10.000 uM; for inhibition at 30 µM: read-out: HIV-1 Protease % Inhib, dose 30.000 uM
How it was run: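 Biotinylated, FITC-labeled peptide substrate (20 μl of 0.2 μM) incubated with HIV-1 protease (10 μl of 0.1 μM) and compound in 0.1 M sodium acetate pH 5.5, 1.0 M NaCl, 0.05% NP-40, 1 h, room temperature, dark. Streptavidin beads then capture uncleaved substrate; filtered labeled product read by fluorescence, giving percent inhibition.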

Structure (SMILES) | Ki (HIV-1 protease [1]) | inhibition at 0.123 µM (HIV-1 protease [2]) | inhibition at 0.37 µM (HIV-1 protease [2]) | inhibition at 1.1 µM (HIV-1 protease [2]) | inhibition at 3.3 µM (HIV-1 protease [2]) | inhibition at 10 µM (HIV-1 protease [2]) | inhibition at 30 µM (HIV-1 protease [2]) | HIV-1 Protease % Inhib (HIV-1 protease [2]; dose 0.123 uM) | HIV-1 Protease % Inhib (HIV-1 protease [2]; dose 0.370 uM) | HIV-1 Protease % Inhib (HIV-1 protease [2]; dose 1.100 uM) | HIV-1 Protease % Inhib (HIV-1 protease [2]; dose 3.300 uM) | HIV-1 Protease % Inhib (HIV-1 protease [2]; dose 10.000 uM) | HIV-1 Protease % Inhib (HIV-1 protease [2]; dose 30.000 uM)
NC(=O)c1ccc(S(=O)(=O)Nc2cccc(C(c3c(O)c4c(oc3=O)CCCCCC4)C3CC3)c2)cc1 (stereo not drawn) [Example 365A, 4-[[[3-[Cyclopropyl(5,6,7,8,9,10-hexahydro-4-hydroxy-2-oxo-2H-cycloocta[b]pyran-3-yl)methyl]phenyl]amino]sulfonyl]-benzamide] | 1.86 nM | 83.8% | 106% | 115% | 116% | 117% | 116% | – | – | – | – | – | –
I.O=c1oc2c(c(O)c1C(c1cccc(NS(=O)(=O)CCCN3CCOCC3)c1)C1CC1)CCCCCC2 (stereo not drawn) [Example 365B (Third Title Compound), N-[3-[Cyclopropyl(5,6,7,8,9,10-hexahydro-4-hydroxy-2-oxo-2H-cycloocta[b]pyran-3-yl)methyl]phenyl]-4-morpholinepropanesulfonamide hydrogen iodide salt] | 14.3 nM | – | – | – | – | – | – | 29.06% | 56.47% | 93.46% | 90.63% | 90.94% | 85.31%
O=c1oc2c(c(O)c1C(c1cccc(NS(=O)(=O)CCCI)c1)C1CC1)CCCCCC2 (stereo not drawn) [Example 365C, 3-Iodo-N-[3-[cyclopropyl(5,6,7,8,9,10-hexahydro-4-hydroxy-2-oxo-2H-cycloocta[b]pyran-3-yl)methyl]phenyl]-1-propanesulfonamide] | 16.6 nM | 63% | 93.6% | 102% | 71.5% | 87.5% | 83.5% | – | – | – | – | – | –
CCCC(c1ccccc1)c1c(O)c2c(oc1=O)CCCCCC2 (stereo not drawn) [Example 369, 5,6,7,8,9,10-Hexahydro-4-hydroxy-3-(1-phenylbutyl)-2H-cycloocta[b]pyran-2-one] | 28.5 nM | 54.9% | 83.5% | 96% | 97.1% | 111% | 93.9% | – | – | – | – | – | –
CC(C)C(c1cccc(N)c1)c1c(O)c2c(oc1=O)CCCCCC2 (stereo not drawn) [Example 371, 3-[1-(3-Aminophenyl)-2-methylpropyl]-5,6,7,8,9,10-hexahydro-4-hydroxy-2H-cycloocta[b]pyran-2-one] | 7.35 nM | 86.8% | 109% | 110% | 113% | 108% | 110% | – | – | – | – | – | –
CC(C)C(c1cccc(NS(=O)(=O)c2ccc(Cl)cc2)c1)c1c(O)c2c(oc1=O)CCCCCC2 (stereo not drawn) [Example 373, 4-Chloro-N-[3-[1-(6,7,8,9,10-hexahydro-4-hydroxy-2-oxo-2H-cycloocta[b]pyran-3-yl)-2-methylpropyl]phenyl]-benzenesulfonamide] | 18.3 nM | 31.8% | 68.9% | 87% | 97.1% | 102% | 105% | – | – | – | – | – | –
CC(C)C(c1cccc(NS(=O)(=O)c2cn(C)cn2)c1)c1c(O)c2c(oc1=O)CCCCCC2 (stereo not drawn) [Example 374, N-[3-[1-(5,6,7,8,9,10-Hexahydro-4-hydroxy-2-oxo-2H-cycloocta[b]pyran-3-yl)-2-methylpropyl]phenyl]-1-methyl-1H-imidazole4-sulfonamide] | 1.3 nM and 0.72 nM | 121% | 121% | 131% | 125% | 129% | 128% | – | – | – | – | – | –
CCCC(c1cccc(N)c1)c1c(O)c2c(oc1=O)CCCCCC2 (stereo not drawn) [Example 376, 3-[1-(3-Aminophenyl)butyl]-5,6,7,8,9,10-hexahydro4-hydroxy-2H-cycloocta[b]pyran-2-one] | 195 nM | 10.6% | 33.7% | 75.3% | 96.5% | 102% | 103% | – | – | – | – | – | –
CCCC(c1cccc(NS(=O)(=O)c2ccc(Cl)cc2)c1)c1c(O)c2c(oc1=O)CCCCCC2 (stereo not drawn) [Example 377, Benzenesulfonamide, 4-chloro-N-[3-[1-(5,6,7,8,9,10-hexahydro-4-hydroxy-2-oxo-2H-cycloocta[b]pyran-3-yl)butyl]phenyl]-] | 4 nM | 92.9% | – | – | – | – | 94.7% | – | – | – | 66.07% and 114.03% | 83.74% and 107.37% | 101.29%
CCCC(c1cccc(NS(=O)(=O)c2ccc(C#N)cc2)c1)c1c(O)c2c(oc1=O)CCCCCC2 (stereo not drawn) [Example 378, Benzenesulfonamide, 4-cyano-N-[3-[1-(5,6,7,8,9,10-hexahydro-4-hydroxy-2-oxo-2H-cycloocta[b]pyran-3-yl)butyl]phenyl]-] | 1.06 nM | 103% | 111% | 112% | 118% | 112% | 112% | – | – | – | – | – | –
